Where a name gives a salt, the structure may show the parent alone. ± gives the standard deviation of the averaged measurements.
Tested on: HS729
Test: relative viability vs DMSO control (72 h) (fraction); higher = more viable cells
In short: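 Sarcoma cell lines were grown in 384-well plates seeded toward 80–90% confluence and exposed 24 h later to serially diluted compound. After 72 h at 37 °C and 5% CO2, with 0.1% DMSO vehicle and a 5 µM positive control on the plates, ATPLite was read. Relative viability, given as percent growth averaged over up to triplicate wells, was rescaled so that 1 is full and 0 is none.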

Row | Compound | relative viability (0.00017 µM) | relative viability (0.00051 µM) | relative viability (0.00152 µM) | relative viability (0.00457 µM) | relative viability (0.01372 µM) | relative viability (0.04115 µM) | relative viability (0.1235 µM) | relative viability (0.3704 µM) | relative viability (1.111 µM) | relative viability (3.333 µM) | relative viability (10 µM)
1 | Cc1cc(C)c(/C=C2\C(=O)Nc3ccccc32)[nH]1 [Semaxanib] | 0.893 ± 0.093 | 0.895 ± 0.11 | 0.895 ± 0.074 | 0.889 ± 0.093 | 0.871 ± 0.086 | 0.883 ± 0.097 | 0.853 ± 0.078 | 0.821 ± 0.069 | 0.762 ± 0.07 | 0.747 ± 0.057 | 0.613 ± 0.036
2 | CC1(C)CNc2cc(NC(=O)c3cccnc3NCc3ccncc3)ccc21 [Motesanib] | 0.999 ± 0.075 | 1.03 ± 0.077 | 1 ± 0.077 | 1 ± 0.043 | 0.992 ± 0.037 | 1.03 ± 0.064 | 0.955 ± 0.073 | 0.932 ± 0.046 | 0.872 ± 0.051 | 0.828 ± 0.019 | 0.779 ± 0.065
3 | CNC(=O)c1ccc(-c2cnc3ncc(Cc4ccc5ncccc5c4)n3n2)cc1F [Capmatinib] | 0.949 ± 0.061 | 0.94 ± 0.025 | 0.945 ± 0.027 | 0.956 ± 0.053 | 0.935 ± 0.021 | 0.956 ± 0.023 | 0.949 ± 0.029 | 0.921 ± 0.054 | 0.924 ± 0.043 | 0.953 ± 0.087 | 0.906 ± 0.066
4 | CC(C)N1CCN(Cc2cnc(-c3cc(-c4cccc5[nH]ccc45)cc4[nH]ncc34)o2)CC1 [Nemiralisib] | 1.06 ± 0.022 | 0.984 ± 0.026 | 0.98 ± 0.067 | 0.938 ± 0.038 | 0.978 ± 0.059 | 0.97 ± 0.067 | 0.892 ± 0.012 | 0.909 ± 0.063 | 0.787 ± 0.029 | 0.653 ± 0.037 | 0.52 ± 0.029
5 | CO[C@H]1C[C@@H]2CC[C@@H](C)[C@@](O)(O2)C(=O)C(=O)N2CCCC[C@H]2C(=O)O[C@H]([C@H](C)C[C@@H]2CC[C@@H](OP(C)(C)=O)[C@H](OC)C2)CC(=O)[C@H](C)/C=C(\C)[C@@H](O)[C@@H](OC)C(=O)[C@H](C)C[C@H](C)/C=C/C=C/C=C/1C [Ridaforolimus] | 0.962 ± 0.012 | 1 ± 0.045 | 0.977 ± 0.048 | 0.907 ± 0.1 | 0.923 ± 0.054 | 0.944 ± 0.0096 | 0.916 ± 0.12 | 0.924 ± 0.096 | 0.86 ± 0.14 | 0.786 ± 0.065 | 0.763 ± 0.052
6 | Nc1cc(C(F)(F)F)c(-c2cc(N3CCOCC3)nc(N3CCOCC3)n2)cn1 [Buparlisib] | 0.937 ± 0.034 | 0.95 ± 0.015 | 0.936 ± 0.046 | 0.906 ± 0.083 | 0.902 ± 0.062 | 0.89 ± 0.012 | 0.812 ± 0.052 | 0.702 ± 0.059 | 0.568 ± 0.053 | 0.327 ± 0.023 | 0.274 ± 0.026
7 | Cc1ccc(F)c(NC(=O)Nc2ccc(-c3cccc4[nH]nc(N)c34)cc2)c1 [Linifanib] | 1.02 ± 0.065 | 0.958 ± 0.072 | 0.937 ± 0.052 | 0.943 ± 0.077 | 0.958 ± 0.052 | 0.896 ± 0.033 | 0.83 ± 0.033 | 0.783 ± 0.018 | 0.7353 ± 0.0054 | 0.762 ± 0.049 | 0.689 ± 0.055
8 | N#CC[C@H](C1CCCC1)n1cc(-c2ncnc3[nH]ccc23)cn1 [Ruxolitinib] | 1.07 ± 0.028 | 1.07 ± 0.028 | 1.06 ± 0.028 | 1.05 ± 0.027 | 1.02 ± 0.068 | 1.06 ± 0.031 | 1.01 ± 0.031 | 0.989 ± 0.035 | 0.938 ± 0.086 | 0.894 ± 0.1 | 0.764 ± 0.041
9 | C=CC(=O)Nc1cccc(Oc2nc(Nc3ccc(N4CCN(C)CC4)cc3)nc3ccsc23)c1 [Olmutinib] | 1.02 ± 0.095 | 1.03 ± 0.1 | 0.996 ± 0.094 | 0.988 ± 0.07 | 0.922 ± 0.05 | 0.968 ± 0.11 | 0.958 ± 0.093 | 0.904 ± 0.097 | 0.925 ± 0.079 | 0.887 ± 0.051 | 0.713 ± 0.059
10 | CCCS(=O)(=O)Nc1ccc(F)c(C(=O)c2c[nH]c3ncc(-c4ccc(Cl)cc4)cc23)c1F [Vemurafenib] | 0.9411 ± 0.0078 | 0.97 ± 0.024 | 0.949 ± 0.051 | 0.949 ± 0.05 | 0.962 ± 0.021 | 0.915 ± 0.03 | 0.955 ± 0.031 | 0.908 ± 0.013 | 0.9276 ± 0.0087 | 0.856 ± 0.065 | 0.73 ± 0.016
11 | Cc1ccc(NC(=O)c2ccc(CN3CCN(C)CC3)cc2)cc1Nc1nc(-c2cccnc2)cs1 [Masitinib] | 1.06 ± 0.064 | 1.06 ± 0.043 | 0.984 ± 0.066 | 1.03 ± 0.085 | 1.03 ± 0.037 | 1.04 ± 0.063 | 0.969 ± 0.038 | 0.913 ± 0.04 | 0.851 ± 0.054 | 0.576 ± 0.018 | 0.139 ± 0.022
12 | Cc1cnc(Nc2ccc(OCCN3CCCC3)cc2)nc1Nc1cccc(S(=O)(=O)NC(C)(C)C)c1 [Fedratinib] | 1.03 ± 0.038 | 0.948 ± 0.033 | 0.99 ± 0.02 | 0.928 ± 0.047 | 0.924 ± 0.05 | 0.888 ± 0.021 | 0.805 ± 0.033 | 0.649 ± 0.026 | 0.497 ± 0.0061 | 0.263 ± 0.025 | 0.0101 ± 0.0019
13 | C[C@@H](c1ccc2nccn2c1)n1nnc2ncc(-c3cnn(C)c3)nc21 [Volitinib] | 0.947 ± 0.029 | 0.978 ± 0.013 | 0.978 ± 0.031 | 1.02 ± 0.043 | 0.938 ± 0.021 | 0.952 ± 0.066 | 0.955 ± 0.061 | 1 ± 0.053 | 1 ± 0.08 | 0.97 ± 0.034 | 1.03 ± 0.042
14 | COc1cccc2c1C(=O)c1c(O)c3c(c(O)c1C2=O)C[C@@](O)(C(=O)CO)C[C@@H]3O[C@H]1C[C@H](N)[C@H](O)[C@H](C)O1 [Doxorubicin Hydrochloride] | 0.93 ± 0.021 | 0.93 ± 0.047 | 0.949 ± 0.054 | 0.946 ± 0.055 | 0.81 ± 0.029 | 0.6943 ± 0.0048 | 0.525 ± 0.041 | 0.303 ± 0.017 | 0.258 ± 0.0095 | 0.136 ± 0.0072 | 0.118 ± 0.0061
15 | CCN1CCN(Cc2ccc(Nc3ncc(F)c(-c4cc(F)c5nc(C)n(C(C)C)c5c4)n3)nc2)CC1 [Abemaciclib] | 0.912 ± 0.041 | 0.923 ± 0.014 | 0.892 ± 0.057 | 0.862 ± 0.033 | 0.9097 ± 0.0087 | 0.865 ± 0.029 | 0.818 ± 0.029 | 0.854 ± 0.087 | 0.873 ± 0.025 | 0.886 ± 0.021 | 0.885 ± 0.011
16 | C=CC(=O)N1CCC([C@@H]2CCNc3c(C(N)=O)c(-c4ccc(Oc5ccccc5)cc4)nn32)CC1 [Zanubrutinib] | 1.06 ± 0.046 | 1.07 ± 0.06 | 1.05 ± 0.061 | 1.05 ± 0.072 | 1.06 ± 0.082 | 1.04 ± 0.099 | 1.06 ± 0.062 | 1.03 ± 0.095 | 0.961 ± 0.094 | 1.02 ± 0.074 | 0.873 ± 0.077
17 | COc1cc2/c(=N/c3ccc(Br)cc3F)nc[nH]c2cc1OCC1CCN(C)CC1 [Vandetanib] | 0.915 ± 0.04 | 0.896 ± 0.083 | 0.899 ± 0.031 | 0.8994 ± 0.0041 | 0.871 ± 0.022 | 0.843 ± 0.047 | 0.857 ± 0.026 | 0.834 ± 0.068 | 0.746 ± 0.055 | 0.663 ± 0.03 | 0.028 ± 0.0075
18 | C[C@@H]1COCCN1c1cc(-c2ccnn2C)c2ccnc(-c3ccn[nH]3)c2n1 | 0.945 ± 0.068 | 0.894 ± 0.045 | 0.92 ± 0.071 | 0.873 ± 0.041 | 0.849 ± 0.036 | 0.804 ± 0.04 | 0.681 ± 0.019 | 0.634 ± 0.018 | 0.469 ± 0.017 | 0.403 ± 0.033 | 0.373 ± 0.012
19 | C[C@]1(O)C[C@@H](c2nc(-c3ccc4ccc(-c5ccccc5)nc4c3)c3c(N)nccn32)C1 [Linsitinib] | 1.04 ± 0.051 | 1.02 ± 0.073 | 0.996 ± 0.053 | 0.969 ± 0.026 | 0.921 ± 0.033 | 0.842 ± 0.012 | 0.757 ± 0.047 | 0.655 ± 0.07 | 0.588 ± 0.047 | 0.577 ± 0.055 | 0.465 ± 0.049
